Measured values: patent US12240812B2, “Compound for inhibiting PGE2/EP4 signaling transduction inhibiting, preparation method therefor, and medical uses thereof” (Keythera (Suzhou) Pharmaceuticals Co. Ltd., priority 2019, dated 2025)
Read-outs that look alike come from different tables or passages of the source.

Columns and labels:
[1] = tested on: CT-26 colorectal tumor; assay: Compound 6 and anti-PD-1 antibody alone or in combination on CT-26 colorectal tumor in mouse; type: in vivo
Procedure: (§1) Efficacy study on allograft tumor: each 6-week-old female BALB/c mouse was subcutaneously inoculated with 1×10^6 CT26 cancer cells. When the tumor reached about 60 to 80 mm^3, the tumor-bearing mice were randomly grouped to the vehicle group or treatment group. When administered alone or in combination, compound 6 was administered orally (p.o.) in a 0.5% MC suspension at a dose of 30 or 150 mg/kg, once a day. When administered alone or in combination, anti-PD-1 antibody (Invivomab anti-mouse PD-1 (CD279), Abcam) was administered intraperitoneally at a dose of 5 mg/kg, once every 4 days, for a total of 3 times (Q4D×3). The mice in the vehicle group and PD-1 antibody-administered alone group were orally administered with distilled water every day, and the administration time was the same as that of the compound 6 group. The tumor volume and body weight were recorded 2 to 3 times a week.

[2] = tested on: PGE2/EP4 signal transduction in MCF7 cells; assay: Determination of MCF7 cAMP (PGE2-stimulated, HTRF); type: cell-based; conditions: Homo sapiens
Procedure: • a) MCF7 cells (ATCC, 6000 cells/well/40 μl) were inoculated into a 384-well cell culture plate containing a medium (DMEM containing 10% FBS and 1×PS), and incubated overnight at 37° C. and 5% CO2. • b) The medium was removed, 40 μl/well of serum-free medium was added, and the cells were incubated at 37° C. and 5% CO2 for 5 hours. • c) The medium was replaced with 18 μL/well of HBSS buffer (Hepes 20 mM, 0.1% BSA, 500 μM IBMX). • d) The compound in DMSO was diluted (1/5 dilution, 9+0 dose). • e) 2 μL of the compound in d) was added to 98 μL of HBSS buffer. • f) 1 μL/well of the diluted compound in e) was added to the cells, with a final starting concentration of 1 μM, and the cells were incubated at 37° C. for 1 hour. • g) The cells were stimulated with 1 μL/well of PGE2 (10 mM DMSO stock solution) (final concentration: 10 nM, and DMSO final concentration: 0.2%), and incubated at 37° C. for 30 minutes. • h) After the incubation, 10 μL/well of cAMP-d2 and 10 μL/well of anti-cAMP were added, RT 1 h. • i) HTRF signals (665 nm/615 nm) were read on Envision. Data Analysis: • High control: 1 μM E7046 • Low control: DMSO • Background: 30 μL/well of lysis buffer+10 μL/well of anti-cAMP • Analytical data: original date—background Inhibition %: 100−100×(high control−analytical data)/(high control−low control)

[3] = Clearance assay in liver cells; type: in vitro ADME; conditions: cryopreserved mouse liver cells (hepatocytes); mouse (ICR/CD-1, male) cryopreserved liver cells, 0-120 min
Procedure: • Liver cell type: mouse • Product catalog: M00505 • Species: ICR/CD-1 • Sex: male • Source: BioreoclmationIVT Procedures: • 1. Preparation of working solution • a. 10 mM stock solutions of test compound and positive control were prepared in an appropriate solvent (DMSO). • b. 198 μL of 50% acetonitrile/50% water and 2 μL of 10 mM solution were mixed in a separate conical tube to obtain 100 μM test compound and positive control. • 2. Preparation of liver cells • a. The incubation medium and liver cell thawing medium were placed in a 37° C. water bath, and heated for at least 15 minutes before use. • b. A vial of cryopreserved liver cells was transferred from the storage, ensuring that the vial was kept at a low temperature until the thawing process was conducted. The cells were thawed by placing the vial in a 37° C. water bath and gently shaking the vial for 2 minutes. After completion of the thawing, the vial was sprayed with 70% ethanol and transferred to a biological safety cabinet. • c. The liver cells were transferred to a 50 mL conical tube containing the thawing medium by a large-bore pipette tip. The 50 mL conical tube was placed in a centrifuge and centrifuged at 100 g for 10 minutes. After completion of the centrifugation, the thawing medium was sucked out, and the liver cells were resuspended in enough medium to produce 1.5×10^6 cells/mL. • 3. Procedures of stability assay • a. 198 μL of liver cells were pipetted into each well of a 96-well uncoated plate. The plate was placed in an incubator to warm up the liver cells for 10 minutes. • b. 2 μL of 100 μM test compound or positive control was pipetted into each well of the 96-well uncoated plate to start the reaction. The plate was placed into the incubator at the set time point. • c. The contents of the wells were transferred in 25 μL of aliquots at the time points of 0, 15, 30, 60, 90 and 120 minutes. The aliquot was mixed with 6 volumes (150 μL) of acetonitrile containing internal standard IS (100 nM alprazolam, 200 nM caffeine, and 100 nM tolbutamide) to stop the reaction. The sample was vortex-mixed for 5 minutes, and centrifuged at 3220 g for 45 minutes. An aliquot of 100 μL of supernatant was diluted with 100 μL of ultrapure water, and the mixture was used for LC/MS/MS analysis. All incubations were performed in duplicate. • d. Data analysis
All calculations were performed using Microsoft Excel. The peak area was determined by the extracted ion chromatogram. The in vitro half-life (t½) of the parent compound was determined by the regression analysis of the compound disappearance percentage versus time curve.
The in vitro half-life (t½) was determined by the slope value k: t½=0.693/k
The in vitro t½ (in minutes) was converted to in vitro intrinsic clearance (CLint, in μL/min/0.5×10^6 cells) by using the following equation (average of repeated determinations): […]

[4] = tested on: CT-26 colorectal tumor; assay: Inhibitory effect of compound 6 on CT-26 colorectal tumor in mouse; type: in vivo; conditions: for effect on the growth of CT-26 tumor: administered alone, different doses (compound 6: 10, 30 or 150 mg/kg p.o. once a day); for effect on the body weight of mouse: CT-26 colorectal cancer model, FIG. 2
Procedure: Efficacy study on allograft tumor: each 6-week-old female BALB/c mouse was subcutaneously inoculated with 1×10^6 CT26 cancer cells (National Experimental Cell Resource Sharing Service Platform, Resource Number 3111CCCC). When the tumor reached about 60 to 80 mm^3, the tumor-bearing mice were randomly grouped to the vehicle group or treatment group. Compound 6 was administered orally (p.o.) in a 0.5% MC suspension at a dose of 10, 30 or 150 mg/kg, once a day. The mice in the vehicle group were orally administered with distilled water every day, and the administration time was the same as that of the compound 6 group. The tumor volume and body weight were recorded 2 to 3 times a week.

[5] = tested on: EMT-6 breast tumor; assay: Compound 6 and anti-PD-1 antibody alone or in combination on EMT-6 breast tumor in mouse; type: in vivo
Procedure: as §1, with “5×10^5 EMT-6” for “1×10^6 CT26”, “30” for “30 or 150”, “20 mg/kg on the first administration, and at a dose of 10 mg/kg on the following administrations” for “5 mg/kg,”, “5 days.” for “4 days, for a total of 3 times (Q4D×3).”

[6] = MCF7 cells, 10 nM PGE2 stimulation, cAMP HTRF, read-out: MCF7 cAMP IC50
[7] = BALB/c mice, CT26 allograft, FIG. 1

Row | IC50 [2, 6] [nM] | hepatocyte CLint at 1 µM [3] [µL/min/1e6 cells] | SMILES | further results
1 | 1.1 | 2.9 | O=C(NC1(C23CC(C(=O)O)(C2)C3)CC1)c1cccc2ccn(Cc3cc4ccccc4o3)c12 [Compound 6, 3-(1-(1-(Benzofuran-2-ylmethyl)-1H-indole-7-carboxamido)cyclopropyl)bicyclo[1.1.1]pentane-1-carboxylic acid] | effect on the body weight of mouse ([1]; CT-26 model, compound 6 alone or in combination with anti-PD-1 antibody, FIG. 4): no significant effect; effect on the growth of CT-26 tumor in mouse ([1]; compound 6 30 or 150 mg/kg p.o. once a day, alone or in combination with anti-PD-1 antibody 5 mg/kg i.p. Q4Dx3, FIG. 3): good inhibitory effect; effect on the growth of CT-26 tumor [4, 7]: significant inhibitory effect; effect on CT-26 tumor growth compared with E7046 ([4]; BALB/c mice, CT26 allograft, at the same dose, FIG. 1): significantly better than E7046; effect on the body weight of mouse [4]: no significant effect; effect on the body weight of mouse ([5]; EMT-6 model, compound 6 alone or in combination with anti-PD-1 antibody, FIG. 6): no significant effect; effect on the EMT-6 breast tumor in mouse ([5]; compound 6 30 mg/kg p.o. once a day, alone or in combination with anti-PD-1 antibody (20 mg/kg first, then 10 mg/kg i.p. every 5 days), FIG. 5): good inhibitory effect
2 | 0.9 | 1.93 | O=C(NC1(C23CC(C(=O)O)(C2)C3)CC1)c1cccc2ccn(Cc3cc4cc(F)ccc4o3)c12 [Compound 21, 3-(1-(1-((5-Fluorobenzofuran-2-yl)methyl)-1H-indole-7-carboxamido)cyclopropyl)bicyclo[1.1.1]pentane-1-carboxylic acid] | 
3 | 2.4 | 7.1 | O=C(NC1(C23CC(C(=O)O)(C2)C3)CC1)c1cccc2ccn(Cc3ccc(C(F)(F)F)cc3)c12 [Compound 1, 3-(1-(1-(4-(Trifluoromethyl)benzyl)-1H-indole-7-carboxamido)cyclopropyl)bicyclo[1.1.1]pentane-1-carboxylic acid] | 
4 | 0.13 | 34 | O=C(NC1(C23CC(C(=O)O)(C2)C3)CC1)c1cc(Cl)cc2ccn(Cc3ccc(-c4ccccc4)cn3)c12 [Compound 7, 3-(1-(5-Chloro-1-((5-phenylpyridin-2-yl)methyl)-1H-indole-7-carboxamido)cyclopropyl)bicyclo[1.1.1]pentane-1-carboxylic acid] | 
5 | 1.5 | 1.35 | O=C(NC1(C23CC(C(=O)O)(C2)C3)CC1)c1cncc2ccn(Cc3cc4ccccc4o3)c12 [Compound 25, 3-(1-(1-(benzofuran-2-ylmethyl)-1H-pyrrolo[3,2-c]pyridine-7-carboxamido)cyclopropyl)bicyclo[1.1.1]pentane-1-carboxylic acid] | 
6 | 0.89 | 19 | O=C(NC1(C23CC(C(=O)O)(C2)C3)CC1)c1cccc2ccn(Cc3ccc(-c4ccccc4)cn3)c12 [Compound 2, 3-(1-(1-((5-Phenylpyridin-2-yl)methyl)-1H-indole-7-carboxamido)cyclopropyl)bicyclo[1.1.1]pentane-1-carboxylic acid] | 
7 | 1.1 | 20 | O=C(NC1(C23CCC(C(=O)O)(CC2)CC3)CC1)c1cccc2ccn(Cc3ccc(C(F)(F)F)cc3)c12 [Compound 9, 4-(1-(1-(4-(Trifluoromethyl)benzyl)-1H-indole-7-carboxamido)cyclopropyl)bicyclo[2.2.2]octane-1-carboxylic acid] | 

Row | SMILES | IC50 [2, 6] [nM] | hepatocyte CLint at 1 µM [3] [µL/min/1e6 cells] | further results
8 | C[C@H](NC(=O)c1c(C(F)F)nn(C)c1Oc1cccc(C(F)(F)F)c1)c1ccc(C(=O)O)cc1 [Compound E7046, (S)-4-(1-(3-(difluoromethyl)-1-methyl-5-(3-(trifluoromethyl)phenoxy)-1H-pyrazole-4-carboxamido)ethyl)benzoic acid, reference compound] |  | 20.1 | IC50 ([2]; MCF7, read-out: MCF7 cAMP IC50): 11.2 nM; effect on the growth of CT-26 tumor [4, 7]: significant inhibitory effect; effect on the body weight of mouse [4]: no significant effect
9 | O=C(O)c1ccc(C2(NC(=O)c3cccc4ccn(Cc5ccc(C(F)(F)F)cc5)c34)CC2)cc1 [MF-766, 4-(1-(1-(4-(trifluoromethyl)benzyl)-1H-indole-7-carboxamido)cyclopropyl)benzoic acid, reference compound] |  | 12.5 | IC50 ([2]; MCF7, read-out: MCF7 cAMP IC50): 1.3 nM
